# Results from patent US20220348876A1, “METABOLISM GUIDES DEFINITIVE LINEAGE SPECIFICATION DURING ENDOTHELIAL TO HEMATOPOIETIC TRANSITION” (Amniotics AB, priority 2019, published 2022).
# How the values were obtained:
# LT-HSCs = test: CFU assay of LT-HSCs sorted from E14.5 fetal livers of treated embryos; format: in vivo, mice; conditions: DCA-treated embryos vs control and UK5099
# Procedure: (§1) Pregnant female C57Bl/6xB6.SJL mice were injected intraperitoneally at E9.5 with UK5099 (4 mg/kg) or DCA (200 mg/kg) or PBS (control). Embryos were harvested at E14.5 and individually weighed and processed. Fetal livers were dissected and homogenized in 800 μL ice cold PBS supplemented with 2% fetal bovine serum (FBS) and FL cells were washed in PBS with 2% FBS. For the differentiated lineage panel, cells were stained with B220 and CD19 (B-cell markers)-PE, CD3e-APC, Ter119-PeCy7 and CD71-FITC and analyzed on a BD FACSARIA III. For the HSC panel, samples were first treated with ammonium chloride solution (STEMCELL Technologies, France) to lyse red blood cells, washed twice in ice cold PBS with 2% FBS, stained with CD3e, B220, Ter119, Gr1 (Lineage)-PeCy5, c-Kit-Efluor780, Sca1-BV421, CD48-FITC, CD150-BV605 and 7-AAD (for dead cell exclusion) and analyzed on a BD FACSARIA III. […] For plating of CFU assays, 100 LT-HSCs were sorted (gating strategy shown in FIG. 13, d) and resuspended in 3.0 mL Methocult M3434 (STEMCELL Technologies, France). Each mixture was divided onto 2 wells of a non-tissue culture treated 6-well plate. Following a 14-day incubation in a humidified incubator at 37° C., 5% CO2, 20% O2, colonies were morphologically distinguished and scored.
# NSG mice = NSG mice transplantation of DCA-treated HE cells; format: in vivo; conditions: week 8; text does not separate DCA from control
# Procedure: Sorted human HE cells (350,000) were mixed with OP9-DL1 stroma (60,000) and subcultured for 3 days with or without DCA (3 mM) on Matrigel (16 μg/cm^2, Corning)-coated 12-well plates in HE medium^30. Between 100,000-150,000 cells from control or DCA samples were transplanted into sub-lethally irradiated (300 cGy) 8-week-old female NOD/Cg-Prkdc^scid Il2rg^tm1Wjl/SzJ mice (NSG, The Jackson Laboratory) together with 20,000 whole bone marrow support cells from C57Bl/6.SJL mice (CD45.1+/CD45.2+, in house breeding). Cells were transplanted in single cell solution in 250 μL PBS with 2% FBS through intravenous tail vein injection. Drinking water of transplanted NSG mice was supplemented with ciprofloxacin (125 mg/L, HEXAL) for 3 weeks after transplantation to prevent infection. Mice were housed in a controlled environment with 12-hour light-dark cycles with chow and water provided ad libitum. Experiments and animal care were performed in accordance with the Lund University Animal Ethical Committee.
# Peripheral blood (PB) was collected from the tail vein into EDTA-coated microvette tubes (Sarstedt, Cat #20.1341.100). […]
# Bone marrow was analyzed at the 12-week transplantation endpoint. […]
# C57Bl/6xB6.SJL mice = test: In vivo compound injection of pregnant mice, fetal liver analysis at E14.5
# Procedure: as §1
# HE cells = test: Lymphoid differentiation assay on OP9-DL1 stroma; format: cell-based, human; conditions: 3-day subculture with UK5099 10 μM or DCA 3 mM, then 35-day co-culture, vs untreated
# Procedure: Subculture day 3 HE cells cultured in the presence of UK5099 (10 μM), DCA (3 mM), or in glutamine-free medium with DMK (1.75 mM), nucleosides (1×) or NEAAs (1×), as indicated, were collected after a 2-minute incubation at 37° C. with StemPro Accutase Cell Dissociation Reagent and seeded onto 80% confluent OP9-DL1 stroma. Cells were cultured in OP9 medium with SCF (10 ng/ml), FLT3-L (10 ng/ml), IL-2 (5 ng/ml), IL-7 (5 ng/ml, first 15 days only) and IL-15 (10 ng/ml) with passaging onto new OP9-DL1 stroma every week, as described previously (Renoux, V. M. et al. Immunity 43, 394-407 (2015)). At day 35 of co-culture, cells were analyzed on a BD LSRFortessa.
SMILES,decrease in the BFU-E to CFU-GM ratio (LT-HSCs) [%],engraftment: human CD45+ cells in the peripheral blood (NSG mice),effect on in vivo EHT and hematopoiesis (C57Bl/6xB6.SJL mice; UK5099 4 mg/kg i.p. at E9.5),"frequency of phenotypic long-term HSCs (LT-HSCs) (C57Bl/6xB6.SJL mice; fetal liver E14.5, i.p. at E9.5, UK5099 4 mg/kg or DCA 200 mg/kg)",NK cell differentiation (CD45+CD56+) (HE cells)
"O=C(O)C(Cl)Cl [DCA, dichloroacetate]",80,around 1%,–,–,–
N#C/C(=C\c1cn(-c2ccccc2)c2ccccc12)C(=O)O [UK5099],–,–,No significant effect,not affected,impaired NK cell formation
